For orientation: IC50 means the concentration needed to halve the response being measured. High values mean weaker potency, low ones greater potency. The term Ki denotes a dissociation constant, usually derived from enzyme kinetics or from competition with a known ligand.

Experiment [1] has as its target T1, DDR1 (Homo sapiens, UniProt Q08345). Kind of experiment: DDR1 cell based assay (PathHunter U2OS DDR1 assay). On the set-up: host or cells: U2OS-DDR1 (PathHunter). Particulars: U2OS-DDR1 cells, bovine Type II Collagen 20 μg/ml. An outline of the steps: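 Receptor activation measured by enzyme-fragment complementation luminescence in engineered U2OS cells. Compound added 30 min before overnight challenge with 20 μg/ml bovine collagen II; data scaled between vehicle and collagen-stimulated controls, IC50 derived by four-parameter variable-slope fitting.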

Experiment [2] addresses T2, DDR2 (Homo sapiens, UniProt Q16832).
T2 sequence (Q16832 22-855): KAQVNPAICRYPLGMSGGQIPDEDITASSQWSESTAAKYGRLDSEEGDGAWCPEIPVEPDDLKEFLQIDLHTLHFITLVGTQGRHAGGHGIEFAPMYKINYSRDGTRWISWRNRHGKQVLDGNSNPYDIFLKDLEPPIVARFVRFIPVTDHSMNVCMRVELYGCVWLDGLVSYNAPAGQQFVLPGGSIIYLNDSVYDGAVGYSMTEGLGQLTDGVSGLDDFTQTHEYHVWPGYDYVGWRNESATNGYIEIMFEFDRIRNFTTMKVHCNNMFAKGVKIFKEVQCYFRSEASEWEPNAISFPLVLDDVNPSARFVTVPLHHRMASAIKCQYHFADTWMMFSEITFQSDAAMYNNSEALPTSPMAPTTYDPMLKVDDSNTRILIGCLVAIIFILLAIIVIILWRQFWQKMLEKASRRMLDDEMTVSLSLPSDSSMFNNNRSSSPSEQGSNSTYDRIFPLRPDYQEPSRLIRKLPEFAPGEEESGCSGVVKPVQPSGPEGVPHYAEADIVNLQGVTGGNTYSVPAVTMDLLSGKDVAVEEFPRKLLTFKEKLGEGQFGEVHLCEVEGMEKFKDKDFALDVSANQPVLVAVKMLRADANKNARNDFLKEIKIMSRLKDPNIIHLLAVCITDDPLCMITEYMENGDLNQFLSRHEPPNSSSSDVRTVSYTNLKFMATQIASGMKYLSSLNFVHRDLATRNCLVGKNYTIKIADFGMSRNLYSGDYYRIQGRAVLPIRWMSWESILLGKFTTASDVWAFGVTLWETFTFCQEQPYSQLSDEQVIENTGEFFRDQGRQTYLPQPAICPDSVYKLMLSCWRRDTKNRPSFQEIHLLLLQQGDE
Kind of experiment: DDR2 binding assay (LanthaScreen Europium Kinase Binding assay). On the set-up: purchased Life Technologies. Particulars: binding assay, 5 nM DDR2, 10 nM Kinase Tracer 178; Ki from IC50 by Cheng-Prusoff; read-out: Ki DDR2. An outline of the steps:
(§1)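 TR-FRET tracer-displacement format: 665/615 nm emission ratio (340 nm excitation) gave IC50 by 4-parameter fit, then Ki via Cheng-Prusoff. Each kinase at 5 nM with 2 nM Eu-anti-GST antibody and Tracer 178 (DDR1 20 nM, DDR2 10 nM), 1 h, room temperature, HEPES pH 7.5 buffer.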
Background: Time-resolved FRET reads energy transfer from a long-lived donor to a nearby acceptor.

The target in experiment [3] is T1, DDR1. Kind of experiment: DDR1 binding assay (LanthaScreen Europium Kinase Binding assay). On the set-up: purchased Carna Biosciences. Particulars: binding assay, 5 nM DDR1, 20 nM Kinase Tracer 178; Ki from IC50 by Cheng-Prusoff; read-out: Ki DDR1. An outline of the steps:
as §1

The structures appear in SMILES notation.

T1 sequence (Q08345 19-913): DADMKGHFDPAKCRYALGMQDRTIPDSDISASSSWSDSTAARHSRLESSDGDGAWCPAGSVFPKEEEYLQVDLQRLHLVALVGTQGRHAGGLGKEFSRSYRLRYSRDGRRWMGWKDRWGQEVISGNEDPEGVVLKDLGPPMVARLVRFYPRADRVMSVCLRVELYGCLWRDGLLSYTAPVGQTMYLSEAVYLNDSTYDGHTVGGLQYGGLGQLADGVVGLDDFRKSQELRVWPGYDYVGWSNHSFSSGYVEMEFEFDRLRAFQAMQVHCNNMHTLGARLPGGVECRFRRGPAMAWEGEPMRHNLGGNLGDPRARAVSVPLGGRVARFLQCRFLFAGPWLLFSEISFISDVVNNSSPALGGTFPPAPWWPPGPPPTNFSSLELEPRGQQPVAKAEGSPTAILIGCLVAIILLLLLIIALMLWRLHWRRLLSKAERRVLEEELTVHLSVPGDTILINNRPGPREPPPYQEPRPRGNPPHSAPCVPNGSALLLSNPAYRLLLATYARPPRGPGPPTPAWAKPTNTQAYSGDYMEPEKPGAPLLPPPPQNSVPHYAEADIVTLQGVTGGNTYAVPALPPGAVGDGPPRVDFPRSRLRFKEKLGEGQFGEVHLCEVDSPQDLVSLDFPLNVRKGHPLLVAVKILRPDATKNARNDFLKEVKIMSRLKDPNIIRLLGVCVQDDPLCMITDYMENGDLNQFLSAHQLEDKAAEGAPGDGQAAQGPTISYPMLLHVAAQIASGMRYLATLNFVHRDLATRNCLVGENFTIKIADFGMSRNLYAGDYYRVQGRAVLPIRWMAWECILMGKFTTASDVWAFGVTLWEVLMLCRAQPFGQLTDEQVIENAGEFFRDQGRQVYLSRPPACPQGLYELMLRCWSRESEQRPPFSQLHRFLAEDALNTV

With `N#Cc1cc(NC(=O)c2csc3c2CCN(C(=O)c2cnc4ccccn24)C3)cc(C(F)(F)F)c1` [Example 131, N-(3-cyano-5-(trifluoromethyl)phenyl)-6-(imidazo[1,2-a]pyridine-3-carbonyl)-4,5,6,7-tetrahydrothieno[2,3-c]pyridine-3-carboxamide], the IC50 in experiment [1] was in the range of 25 to 50 nM. For the same molecule, the Ki in experiment [2] and in experiment [3] was under 25 nM throughout.

In turn, `Cn1nc(C(C)(C)C)cc1NC(=O)c1csc2c1CCN(C(=O)c1cnc3ccc(F)cn13)C2` [Example 81, N-(3-(tert-butyl)-1-methyl-1H-pyrazol-5-yl)-6-(6-fluoroimidazo[1,2-a]pyridine-3-carbonyl)-4,5,6,7-tetrahydrothieno[2,3-c]pyridine-3-carboxamide] came in with an IC50 in experiment [1] of 50 to 80 nM. The Ki in experiment [2] and in experiment [3] was under 25 nM throughout.

Molecule `O=C(Nc1cccc(C(F)(F)F)c1)c1csc2c1CCN(C(=O)c1cnc3cc(OCCN4CCOCC4)ccn13)C2` [Example 139, 6-(7-(2-morpholinoethoxy)imidazo[1,2-a]pyridine-3-carbonyl)-N-(3-(trifluoromethyl)phenyl)-4,5,6,7-tetrahydrothieno[2,3-c]pyridine-3-carboxamide] displayed an IC50 in experiment [1] of 25 to 50 nM. The Ki in experiment [2] and in experiment [3] was under 25 nM each time.

In turn, `CC(C)(c1cc(NC(=O)c2csc3c2CCN(C(=O)c2cnn4ccncc24)C3)no1)C(F)(F)F` [Example 126, 6-(pyrazolo[1,5-a]pyrazine-3-carbonyl)-N-(5-(1,1,1-trifluoro-2-methylpropan-2-yl)isoxazol-3-yl)-4,5,6,7-tetrahydrothieno[2,3-c]pyridine-3-carboxamide] gave an IC50 in experiment [1] of 25 to 50 nM. The Ki in experiment [2] and in experiment [3] was under 25 nM each time.

`O=C(Nc1nccc(C(F)(F)F)n1)c1csc2c1CCN(C(=O)c1cnc3ccccn13)C2` [Example 30, 6-(imidazo[1,2-a]pyridine-3-carbonyl)-N-(4-(trifluoromethyl)pyrimidin-2-yl)-4,5,6,7-tetrahydrothieno[2,3-c]pyridine-3-carboxamide] came in with an IC50 in experiment [1] of 50 to 80 nM. The Ki in experiment [2] and in experiment [3] was under 25 nM each time.

As to `O=C(Nc1cccc(C(F)(F)F)c1)c1csc2c1CCN(C(=O)c1cnc3n1CCCC3)C2` [Example 95, 6-(5,6,7,8-tetrahydroimidazo[1,2-a]pyridine-3-carbonyl)-N-(3-(trifluoromethyl)phenyl)-4,5,6,7-tetrahydrothieno[2,3-c]pyridine-3-carboxamide], the IC50 in experiment [1] is under 25 nM. Moreover, the Ki in experiment [2] and in experiment [3] was under 25 nM in each case.

Consider `CN(Cc1cc(NC(=O)c2csc3c2CCN(C(=O)c2cnc4ccccn24)C3)cc(C(F)(F)F)c1)C1COC1` [Example 53, 6-(imidazo[1,2-a]pyridine-3-carbonyl)-N-(3-((methyl(oxetan-3-yl)amino)methyl)-5-(trifluoromethyl)phenyl)-4,5,6,7-tetrahydrothieno[2,3-c]pyridine-3-carboxamide], for which the IC50 in experiment [1] was in the range of 50 to 80 nM. The Ki in experiment [2] and in experiment [3] was under 25 nM throughout.

In the case of `O=C(Nc1cccc(C(F)(F)F)c1)c1csc2c1CCN(C(=O)c1cnc3ccc(OCCO)cn13)C2` [Example 137, 6-(6-(2-hydroxyethoxy)imidazo[1,2-a]pyridine-3-carbonyl)-N-(3-(trifluoromethyl)phenyl)-4,5,6,7-tetrahydrothieno[2,3-c]pyridine-3-carboxamide], the IC50 in experiment [1] is under 25 nM. The Ki in experiment [2] and in experiment [3] was under 25 nM in each case.

The molecule `O=C(Nc1cncc(C(F)(F)F)c1)c1csc2c1CCN(Cc1ncnc3[nH]ccc13)C2` [Example 155, 6-((7H-pyrrolo[2,3-d]pyrimidin-4-yl)methyl)-N-(5-(trifluoromethyl)pyridin-3-yl)-4,5,6,7-tetrahydrothieno[2,3-c]pyridine-3-carboxamide] returned an IC50 in experiment [1] of 25 to 50 nM. Also, the Ki in experiment [2] and in experiment [3] was under 25 nM throughout.

In experiment [1], `CC(C)(C)c1cc(NC(=O)c2csc3c2CCN(C(=O)c2cnc4ccccn24)C3)on1` [Example 34, N-(3-(tert-butyl)isoxazol-5-yl)-6-(imidazo[1,2-a]pyridine-3-carbonyl)-4,5,6,7-tetrahydrothieno[2,3-c]pyridine-3-carboxamide] gave an IC50 of under 25 nM. Moreover, the Ki in experiment [2] and in experiment [3] was under 25 nM each time.

In the case of `O=C(Nc1cccc(C(F)(F)F)c1)c1csc2c1CCN(C(=O)c1cnc3cccnn13)C2` [Example 92, 6-(imidazo[1,2-b]pyridazine-3-carbonyl)-N-(3-(trifluoromethyl)phenyl)-4,5,6,7-tetrahydrothieno[2,3-c]pyridine-3-carboxamide], in experiment [1], the IC50 is under 25 nM. The Ki in experiment [2] and in experiment [3] was under 25 nM in each case.

In experiment [1], `CN(C)Cc1ccc2ncc(C(=O)N3CCc4c(C(=O)Nc5cccc(C(F)(F)F)c5)csc4C3)n2c1` [Example 135, 6-(6-((dimethylamino)methyl)imidazo[1,2-a]pyridine-3-carbonyl)-N-(3-(trifluoromethyl)phenyl)-4,5,6,7-tetrahydrothieno[2,3-c]pyridine-3-carboxamide] registered an IC50 of 25 to 50 nM. Also, the figures for the Ki in experiment [2] and in experiment [3] were 25 to 50 nM and under 25 nM, respectively.

For the molecule `Cc1cn(-c2cc(NC(=O)c3csc4c3CCN(Cc3cnc5ccccn35)C4)cc(C(F)(F)F)c2)cn1` [Example 65, 6-(imidazo[1,2-a]pyridin-3-ylmethyl)-N-(3-(4-methyl-11H-imidazol-1-yl)-5-(trifluoromethyl)phenyl)-4,5,6,7-tetrahydrothieno[2,3-c]pyridine-3-carboxamide], in experiment [1], the IC50 was in the range of 50 to 80 nM. In addition, the Ki in experiment [2] and in experiment [3] was under 25 nM in each case.

`CC(C)(C)c1cncc(NC(=O)c2csc3c2CCN(C(=O)c2cnn4ccncc24)C3)c1` [Example 123, N-(5-(tert-butyl)pyridin-3-yl)-6-(pyrazolo[1,5-a]pyrazine-3-carbonyl)-4,5,6,7-tetrahydrothieno[2,3-c]pyridine-3-carboxamide]: the IC50 in experiment [1] is 50 to 80 nM. For the same molecule, the Ki in experiment [2] and in experiment [3] was under 25 nM in each case.

In the case of `O=C(Nc1cncc(C(F)(F)F)c1)c1csc2c1CCN(C(=O)c1cnc3n1CCCC3)C2` [Example 111, 6-(5,6,7,8-tetrahydroimidazo[1,2-a]pyridine-3-carbonyl)-N-(5-(trifluoromethyl)pyridin-3-yl)-4,5,6,7-tetrahydrothieno[2,3-c]pyridine-3-carboxamide], the IC50 in experiment [1] is 50 to 80 nM. The inhibition constant Ki in experiment [2] and in experiment [3] was under 25 nM throughout.

`CN1CCN(c2cc(NC(=O)c3csc4c3CCN(C(=O)c3cnc5ccccn35)C4)cc(C(F)(F)F)c2)CC1` [Example 177, 6-(imidazo[1,2-a]pyridine-3-carbonyl)-N-(3-(4-methylpiperazin-1-yl)-5-(trifluoromethyl)phenyl)-4,5,6,7-tetrahydrothieno [2,3-c]pyridine-3-carboxamide] had an IC50 in experiment [1] of 50 to 80 nM. Besides, the Ki in experiment [2] and in experiment [3] was under 25 nM in each case.

`CCn1nc(C(C)(C)C)cc1NC(=O)c1csc2c1CCN(C(=O)c1cnc3ccccn13)C2` [Example 42, N-(3-(tert-butyl)-1-ethyl-1H-pyrazol-5-yl)-6-(imidazo[1,2-a]pyridine-3-carbonyl)-4,5,6,7-tetrahydrothieno[2,3-c]pyridine-3-carboxamide] displayed an IC50 in experiment [1] of 50 to 80 nM. Also, the inhibition constant (Ki) in experiment [2] and in experiment [3] was under 25 nM in each case.
